From patent publication US20200255478A1, “NOVEL COMPOUNDS ACTIVATING THE NRF2 PATHWAY” (Almirall, S.A., priority 2017, published 2020)
Starred links: 1 amine or outer side, 2 acyl side, 3 side chain; linkers in the order of their positions; H or OH if unused. Positions of bridges follow the written chain, without caps; N, C: chain ends. Non-standard residues stand in square brackets, D forms with d. Residues, ends and D or L forms follow the SMILES beside them. *: point of attachment. X1 = O=C([C@@H]1C[C@H](N[*:3])CN1[*:1])[*:2]; mXylylene = c1cc(C[*:1])cc(C[*:2])c1; oXylylene = c1ccc(C[*:2])c(C[*:1])c1; X2 = c1ccc2cc(C[*:2])c(C[*:1])cc2c1; Stearoyl = CCCCCCCCCCCCCCCCCC(=O)*; βAla = NCCC(=O)O

Biological target: Keap1-Maltose Binding Protein (MBP tag) (Homo sapiens, UniProt Q14145)
Experiment: Nrf2-Keap1 HTRF (TR-FRET) binding assay: displacement of biotinylated ETGE peptide from Keap1-MBP
Details: HTRF (TR-FRET); displacement of ETGE-biotin from Keap1-MBP; values banded into grades; read-out: Binding (IC50) ETGE-Keap1

Sequence of Keap1-Maltose Binding Protein (MBP tag) (Q14145 whole entry): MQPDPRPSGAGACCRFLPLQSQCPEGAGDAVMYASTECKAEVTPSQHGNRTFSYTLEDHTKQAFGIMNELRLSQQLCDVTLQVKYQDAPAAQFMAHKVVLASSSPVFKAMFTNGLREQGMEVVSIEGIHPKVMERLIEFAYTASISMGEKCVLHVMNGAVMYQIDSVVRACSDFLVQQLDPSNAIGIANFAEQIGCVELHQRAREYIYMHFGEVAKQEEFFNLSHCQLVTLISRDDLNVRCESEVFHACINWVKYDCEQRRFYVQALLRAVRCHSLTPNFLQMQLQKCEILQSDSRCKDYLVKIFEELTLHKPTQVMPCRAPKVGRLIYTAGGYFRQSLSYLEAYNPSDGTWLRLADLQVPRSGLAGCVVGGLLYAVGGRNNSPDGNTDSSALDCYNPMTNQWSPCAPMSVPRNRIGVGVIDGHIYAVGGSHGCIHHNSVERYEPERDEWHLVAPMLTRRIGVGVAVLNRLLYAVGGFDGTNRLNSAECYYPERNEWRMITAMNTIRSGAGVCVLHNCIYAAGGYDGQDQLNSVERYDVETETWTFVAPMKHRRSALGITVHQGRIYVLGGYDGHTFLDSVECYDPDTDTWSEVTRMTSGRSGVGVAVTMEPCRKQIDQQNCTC

Row | SMILES | IC50 [nM]
1 | Cc1cc(C)c2c(C)c1CSC[C@@H](C(=O)N[C@@H](CC(C)C)C(=O)N1CCC[C@H]1C(=O)NCCC(=O)N[C@@H](CCCNC(=N)N)C(=O)N[C@@H](CCCCN)C(=O)N[C@@H](CCCCN)C(=O)N[C@@H](CCCNC(=N)N)C(=O)N[C@@H](CCCNC(=N)N)C(=O)N[C@@H](CCC(N)=O)C(=O)N[C@@H](CCCNC(=N)N)C(=O)N[C@@H](CCCNC(=N)N)C(=O)N[C@@H](CCCNC(=N)N)C(N)=O)NC(=O)[C@H](CCC(=O)O)NC(=O)CNC(=O)[C@H]([C@@H](C)O)NC(=O)[C@H](CCC(=O)O)NC(=O)[C@@H]1CCCN1C(=O)[C@H](CC(=O)O)NC(=O)[C@@H](NC(=O)[C@H](CCC(N)=O)NC(=O)[C@@H](N)CC(C)C)CSC2 [Example 67] | 1 to 100
2 | CCCCCCCCCCCCCCCCCC(=O)N[C@H]1C[C@H]2C(=O)N[C@@H](CCC(N)=O)C(=O)N[C@H]3CSCc4ccccc4CSC[C@H](NC(=O)[C@H](CCC(=O)O)NC(=O)CNC(=O)[C@H]([C@@H](C)O)NC(=O)[C@H](CCC(=O)O)NC(=O)[C@H](CCCNC(=N)N)NC(=O)[C@H](CC(=O)O)NC3=O)C(=O)N[C@@H](CC(C)C)C(=O)N3CCC[C@@H]3C(=O)N2C1 [Example 70, {[&^1Pro((4S)-NH-Stearyl)-Gln-Cys(&^2)-Asp-Arg-Glu-Thr-Gly-Glu-Cys(&^3)-Leu-D-Pro&^1][&^2(1,2-phenylenediyl)dimethylene&^2]}] (cyclo(CDRETGECL[dP][X1](Stearoyl)Q); linker 1-8 via oXylylene) | < 1
3 | CCCCCCCCCCCCCCCCCC(=O)NCCC(=O)N[C@@H](CC(C)C)C(=O)N[C@@H](CCC(N)=O)C(=O)N[C@H]1CSCc2cccc(c2)CSC[C@@H](C(=O)N[C@@H](CC(C)C)C(=O)N2CCC[C@H]2C(=O)O)NC(=O)[C@H](CCC(=O)O)NC(=O)CNC(=O)[C@H]([C@@H](C)O)NC(=O)[C@H](CCC(=O)O)NC(=O)[C@H](C)NC(=O)[C@H](CC(=O)O)NC1=O [Example 39, {[Stearyl-βAla-Leu-Gln-Cys(&^1)-Asp-Ala-Glu-Thr-Gly-Glu-Cys(&^2)-Leu-Pro-OH][&^1(1,3-phenylenediyl)dimethylene&^2]}] ({Stearoyl-βAla}-LQCDAETGECLP-OH; linker 3-10 via mXylylene) | 1 to 100
4 | CC(=O)N[C@H]1CSCc2cc3ccccc3cc2CSC[C@@H](C(N)=O)NC(=O)[C@H](CCC(=O)O)NC(=O)CNC(=O)[C@H]([C@@H](C)O)NC(=O)[C@H](CCC(=O)O)NC(=O)[C@H](CCC(=O)O)NC(=O)[C@H](CC(=O)O)NC1=O [Example 27, {[Acetyl-Cys(&^1)-Asp-Glu-Glu-Thr-Gly-Glu-Cys(&^2)-NH2][&^1(naphthalene)2,3-diyldimethylene&^2]}] (Ac-CDEETGEC-NH2; linker 1-8 via X2) | 1 to 100
5 | CC(C)C[C@H](NC(=O)[C@@H]1CSCc2cc3ccccc3cc2CSC[C@H](NC(=O)[C@H](CCC(N)=O)NC(=O)[C@@H](N)CC(C)C)C(=O)N[C@@H](CC(=O)O)C(=O)N[C@@H](C)C(=O)N[C@@H](CCC(=O)O)C(=O)N[C@@H]([C@@H](C)O)C(=O)NCC(=O)N[C@@H](CCC(=O)O)C(=O)N1)C(=O)N1CCC[C@H]1C(=O)NCCC(=O)N[C@@H](CCCNC(=N)N)C(=O)N[C@@H](CCCCN)C(=O)N[C@@H](CCCCN)C(=O)N[C@@H](CCCNC(=N)N)C(=O)N[C@@H](CCCNC(=N)N)C(=O)N[C@@H](CCC(N)=O)C(=O)N[C@@H](CCCNC(=N)N)C(=O)N[C@@H](CCCNC(=N)N)C(=O)N[C@@H](CCCNC(=N)N)C(N)=O [Example 30] | 1 to 100
6 | CCCCCCCCCCCCCCCCCC(=O)NCCC(=O)N[C@@H](CC(C)C)C(=O)N[C@@H](CCC(N)=O)C(=O)N[C@H]1CSCc2cc3ccccc3cc2CSC[C@@H](C(=O)N[C@@H](CC(C)C)C(=O)N2CCC[C@H]2C(=O)O)NC(=O)[C@H](CCC(=O)O)NC(=O)CNC(=O)[C@H]([C@@H](C)O)NC(=O)[C@H](CCC(=O)O)NC(=O)[C@@H]2CCCN2C(=O)[C@H](CC(=O)O)NC1=O [Example 36, {[Stearyl-βAla-Leu-Gln-Cys(&^1)-Asp-Pro-Glu-Thr-Gly-Glu-Cys(&^2)-Leu-Pro-OH][&^1(naphthalene)2,3-diyldimethylene&^2]}] ({Stearoyl-βAla}-LQCDPETGECLP-OH; linker 3-10 via X2) | 1 to 100
